Test results as given in patent US9550782B2, “Compounds and methods for treating diabetes” (Medivation Technologies, Inc., priority 2011, dated 2017).
Values joined by “and” are separate entries in the source; they are usually repeats but may differ in a detail not shown here. Identical values can stand only once.

Experiments:
[1] = target: T1, human recombinant adrenergic α2B receptor (Homo sapiens, UniProt P18089); experiment: Radioligand binding, adrenergic α2B ([3H]Rauwolscine); conditions: for Percentage inhibition of ligand binding, Adrenergic α2B (0.03 μM): compound at 0.03 μM
T1 construct: expressed in transfected cells; host or cells: CHO-K1
T1 sequence (P18089 1-450): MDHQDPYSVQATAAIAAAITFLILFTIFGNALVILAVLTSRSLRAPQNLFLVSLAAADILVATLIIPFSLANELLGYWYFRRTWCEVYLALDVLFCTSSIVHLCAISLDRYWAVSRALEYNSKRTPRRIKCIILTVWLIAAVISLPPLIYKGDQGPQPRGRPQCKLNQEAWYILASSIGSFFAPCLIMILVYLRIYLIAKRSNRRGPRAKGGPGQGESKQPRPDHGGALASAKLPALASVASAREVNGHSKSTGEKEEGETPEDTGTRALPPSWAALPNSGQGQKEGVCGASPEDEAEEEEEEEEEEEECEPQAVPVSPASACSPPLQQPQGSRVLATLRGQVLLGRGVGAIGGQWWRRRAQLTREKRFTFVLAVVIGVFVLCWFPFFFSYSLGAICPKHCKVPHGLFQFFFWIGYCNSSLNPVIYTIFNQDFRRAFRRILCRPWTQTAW
Description: To evaluate in radioligand binding assays the activity of compounds of the invention, human recombinant adrenergic α2B receptor expressed in Chinese hamster ovary (CHO) K1 cells (Uhlen, S. et al, Eur. J. Pharmacol. 343(1):93, 1998) in a modified Tris-HCl buffer (50 mM Tris-HCl, pH 7.4, 12.5 mM MgCl2, 1 mM EDTA, 0.2% BSA) was used. Compounds of the invention were incubated with 2.5 nM [3H]Rauwolscine for 60 min at 25° C. Non-specific binding was estimated in the presence of 10 μM Prazosin. Receptor proteins were filtered and washed, the filters were then counted to determine [3H]Rauwolscine specifically bound. […] Compounds of the invention were tested in this biochemical assay and percent inhibition of specific binding was determined. Biochemical assay results are presented as the percent inhibition of specific binding in Table B1.

[2] = target: T2, rat adrenergic α1B receptor (Rattus norvegicus, UniProt P15823); experiment: Radioligand binding, adrenergic α1B ([3H]Prazosin); design: species or system Wistar Rat; conditions: for Percentage inhibition of ligand binding, Adrenergic α1B (0.1 μM): compound at 0.1 μM
T2 construct: rat adrenergic α1B receptor obtained from Wistar Rat liver; from tissue; host or cells: Wistar rat liver
T2 sequence (P15823 1-515): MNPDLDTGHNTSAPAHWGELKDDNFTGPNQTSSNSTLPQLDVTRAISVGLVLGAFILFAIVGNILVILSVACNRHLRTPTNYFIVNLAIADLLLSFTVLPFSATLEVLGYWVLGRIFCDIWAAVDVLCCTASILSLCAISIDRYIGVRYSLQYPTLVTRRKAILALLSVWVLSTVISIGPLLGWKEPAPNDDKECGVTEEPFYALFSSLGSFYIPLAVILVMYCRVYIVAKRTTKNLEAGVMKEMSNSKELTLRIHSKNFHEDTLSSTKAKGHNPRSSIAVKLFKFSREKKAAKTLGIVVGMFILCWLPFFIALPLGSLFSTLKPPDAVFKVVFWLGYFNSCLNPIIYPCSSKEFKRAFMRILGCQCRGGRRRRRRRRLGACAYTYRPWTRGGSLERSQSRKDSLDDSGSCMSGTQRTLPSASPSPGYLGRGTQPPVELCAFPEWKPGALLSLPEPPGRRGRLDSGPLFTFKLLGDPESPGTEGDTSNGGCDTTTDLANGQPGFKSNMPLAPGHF
Description: To evaluate in radioligand binding assays the activity of compounds of the invention, rat adrenergic α1B receptor obtained from Wistar Rat liver (Garcia-S'ainz, J. et al, Biochem. Biophys. Res. Commun. 186:760, 1992; Michel, A. et al, Br. J. Pharmacol. 98:883, 1989) in a modified Tris-HCl buffer (50 mM Tris-HCl buffer, pH 7.4, 0.5 mM EDTA) was used. Compounds of the invention were incubated with 0.25 nM [^3H]Prazosin for 60 min at 25° C. Non-specific binding was estimated in the presence of 10 μM phentolamine. Receptor proteins were filtered and washed, the filters were then counted to determine [^3H]Prazosin specifically bound. […] Compounds of the invention were tested in this biochemical assay and percent inhibition of specific binding was determined. Biochemical assay results are presented as the percent inhibition of specific binding in Table B1.

[3] = target: T3, human recombinant adrenergic α2A receptor (Homo sapiens, UniProt P08913); experiment: Radioligand binding, adrenergic α2A ([3H]MK-912); conditions: [3H]MK-912, repeat datapoints each shown; for Percentage inhibition of ligand binding, Adrenergic α2A (0.1 μM): compound at 0.1 μM
T3 construct: expressed in transfected cells; host or cells: insect Sf9 cells
T3 sequence (P08913 1-465): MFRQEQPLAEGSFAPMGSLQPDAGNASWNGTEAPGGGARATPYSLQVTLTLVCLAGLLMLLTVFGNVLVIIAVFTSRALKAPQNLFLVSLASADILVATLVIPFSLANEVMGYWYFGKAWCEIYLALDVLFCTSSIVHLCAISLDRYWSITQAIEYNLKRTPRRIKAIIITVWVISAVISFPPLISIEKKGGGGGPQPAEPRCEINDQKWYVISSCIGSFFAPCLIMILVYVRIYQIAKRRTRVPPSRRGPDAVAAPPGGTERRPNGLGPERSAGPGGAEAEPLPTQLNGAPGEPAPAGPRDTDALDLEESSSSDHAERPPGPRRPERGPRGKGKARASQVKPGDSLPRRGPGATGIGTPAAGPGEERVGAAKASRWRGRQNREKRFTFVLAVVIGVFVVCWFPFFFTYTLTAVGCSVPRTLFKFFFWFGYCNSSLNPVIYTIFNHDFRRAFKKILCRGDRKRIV
Description: To evaluate in radioligand binding assays the activity of compounds of the invention, human recombinant adrenergic α2A receptor expressed in insect Sf9 cells (Uhlen, S. et al, J. Pharmacol. Exp. Ther. 271:1558, 1994) in a modified Tris-HCl buffer (50 mM Tris-HCl, pH 7.4, 12.5 mM MgCl2, 2 mM EDTA) was used. Compounds of invention were incubated with 1 nM [^3H]MK-912 for 60 min at 25° C. MK912 is (2S-trans)-1,3,4,5′,6,6′,7,12b-octahydro-1′,3′-dimethyl-spiro[2H-benzofuro[2,3-a]quinolizine-2,4′(1′H)-pyrimidin]-2′(3′H)-one hydrochloride. Non-specific binding was estimated in the presence of 10 μM WB-4101 (2-(2,6-Dimethoxyphenoxyethyl)aminomethyl-1,4-benzodioxane hydrochloride). Receptor proteins were filtered and washed, the filters were then counted to determine [^3H]MK-912 specifically bound. […] Compounds of the invention were tested in this biochemical assay and percent inhibition of specific binding was determined. Biochemical assay results are presented as the percent inhibition of specific binding in Table B1.

[4] = repeat datapoints each shown, 0.03 µM
[5] = repeat datapoints each shown, 0.1 µM

SMILES | Percentage inhibition of ligand binding, Adrenergic α2B (0.03 μM) [1, 4] | Percentage inhibition of ligand binding, Adrenergic α1B (0.1 μM) [2, 5] | Percentage inhibition of ligand binding, Adrenergic α2A (0.1 μM) [3] | also measured
CN1CCc2c(c3cc(Cl)ccc3n2CC(O)c2ccncc2)C1 (single isomer, unassigned) [4a] | 99% and 103% | 52% and 57% | 19% and 24% | Percentage inhibition of ligand binding, Adrenergic α2B (0.1 μM) ([1]; compound at 0.1 μM, repeat datapoints each shown, 0.1 µM): 104%; Percentage inhibition of ligand binding, Adrenergic α1B (0.03 μM) ([2]; compound at 0.03 μM, repeat datapoints each shown): 25%; Percentage inhibition of ligand binding, Adrenergic α2A (0.03 μM) ([3]; compound at 0.03 μM): 5%
CN1CCc2c(c3cc(Cl)ccc3n2CC(O)c2ccncc2)C1 (single isomer, unassigned) [4b] | 46% | 58% | 7% | 
CN1CCc2c(c3cc(Cl)ccc3n2CC(O)c2cccnc2)C1 (single isomer, unassigned) [7a] | 59% | 28% | 1% | 
CN1CCc2c(c3cc(Cl)ccc3n2CC(O)c2cccnc2)C1 (single isomer, unassigned) [7b] | 74% | 37% | 25% | 
Cc1ccc2c(c1)c1c(n2CC(O)c2cccnc2)CCN(CCO)C1 (single isomer, unassigned) [21a] | −2% | 5% | −1% | 
Cc1ccc2c(c1)c1c(n2CC(O)c2cccnc2)CCN(CCO)C1 (single isomer, unassigned) [21b] | 1% | −2% | −3% | 
Cc1ccc2c(c1)c1c(n2CC(O)c2ccccn2)CN(C)CC1 (single isomer, unassigned) [22a] | 22% | 19% | 16% | 
Cc1ccc2c(c1)c1c(n2CC(O)c2ccccn2)CN(C)CC1 (single isomer, unassigned) [22b] | 30% | 9% | 0% | 
Cc1ccc2c(c1)c1c(n2CC(C)(O)c2cccnc2)CCNC1 (single isomer, unassigned) [24a] | 63% |  | 8% | Percentage inhibition of ligand binding, Adrenergic α1B (0.1 μM) ([2]; repeat datapoints each shown): 8%
Cc1ccc2c(c1)c1c(n2CC(C)(O)c2cccnc2)CCNC1 (single isomer, unassigned) [24b] | 29% |  | 15% | Percentage inhibition of ligand binding, Adrenergic α1B (0.1 μM) ([2]; repeat datapoints each shown): 8%
Cc1ccc2c(c1)c1c(n2CC(OC(=O)C(C)(C)C)c2ccncc2)CCN(C)C1 (single isomer, unassigned) [130a] |  |  |  | Percentage inhibition of ligand binding, Adrenergic α2B ([1]; 0.03 μM compound, 0.03 µM): 100% and 104%; Percentage inhibition of ligand binding, Adrenergic α2B ([1]; 0.1 μM compound): 107%; Percentage inhibition of ligand binding, Adrenergic α1B ([2]; 0.03 μM compound, 0.03 µM): 32%; Percentage inhibition of ligand binding, Adrenergic α1B ([2]; 0.1 μM compound, 0.1 µM): 66% and 68%
Cc1ccc(CCn2c3c(c4cc(Cl)cnc42)C2CCCN2CC3)cn1 (single isomer, unassigned) [137a] |  |  |  | Percentage inhibition of ligand binding, Adrenergic α2B ([1]; 0.03 μM compound, 0.03 µM): 104%; Percentage inhibition of ligand binding, Adrenergic α1B ([2]; 0.1 μM compound, 0.1 µM): 94%
Cc1cnc2c(c1)c1c(n2CC(N)c2ccc(C#N)cc2)CCN(C)C1 (single isomer, unassigned) [159a] |  |  |  | Percentage inhibition of ligand binding, Adrenergic α2B ([1]; 0.03 μM compound, 0.03 µM): 37%; Percentage inhibition of ligand binding, Adrenergic α1B ([2]; 0.1 μM compound, 0.1 µM): −2%
Cc1ccc2c(c1)c1c(n2CC(O)c2ccc(C#N)cc2)CCN(C)C1 (stereo not drawn) [142a] |  |  |  | Percentage inhibition of ligand binding, Adrenergic α2B ([1]; 0.03 μM compound): 71%; Percentage inhibition of ligand binding, Adrenergic α1B ([2]; 0.1 μM compound): 68%
Cc1ccc2c(c1)c1c(n2CC(C)(O)c2ccc(C)nc2)CN(C)CC1 (stereo not drawn) [196b] |  |  |  | Percentage inhibition of ligand binding, Adrenergic α2B ([1]; 0.03 μM compound, 0.03 µM): −2%; Percentage inhibition of ligand binding, Adrenergic α1B ([2]; 0.1 μM compound, 0.1 µM): 37%

Second part, led by results:

Percentage inhibition of ligand binding, Adrenergic α2B (0.03 μM) [1, 4] | Percentage inhibition of ligand binding, Adrenergic α1B (0.1 μM) [2, 5] | Percentage inhibition of ligand binding, Adrenergic α2A (0.1 μM) [3] | SMILES | also measured
77% | 61% | 11% | Cc1ccc2c(c1)c1c(n2CC(O)c2ccncc2)CC2CCCCN2C1 (racemic) [75a] | 
43% | 16% | 5% | Cc1ccc2c(c1)c1c(n2CC(O)c2ccncc2)CC2CCCCN2C1 (racemic) [75b] | 
11% | 59% | −2% | Cc1ccc2c(c1)c1c(n2CC(O)c2ccncc2)CC2CCCCN2C1 (racemic) [75c] | 
102% | 26% | 49% | Cc1ccc2c(c1)c1c(n2CC(O)c2ccncc2)CC2CCCCN2C1 (racemic) [75d] | 
1% and 7% | 1% | 19% | Cc1cnc2c(c1)c1c(n2CC(C)(O)c2cccnc2)CCN2CCCC12 (single isomer, unassigned) [26c] | 
6% and 11% | −2% | 0% | Cc1cnc2c(c1)c1c(n2CC(C)(O)c2cccnc2)CCN2CCCC12 (single isomer, unassigned) [26d] | 
